Reference: patent US20240317748A1, “CARBONYL SUBSTITUTED DIAZASPIRO COMPOUNDS AND ITS USE” (BIONOVA PHARMACEUTICALS (SHANGHAI) LIMITED, priority 2021, published 2024)

Assays:
OCI-AML3 cells = test: Cell proliferation assay (CellTiter-Glo), OCI-AML3; format: cell-based, human; details: Homo sapiens, OCI-AML-3, 120 h; OCI-AML3 (NPM1c mutation), 5 days incubation; read-out: Cell antiproliferation assay OCI-AML3 IC50
Experimental: (§1) The antiproliferative activity of test compounds was assessed in human leukemia cell lines. The cell line MV4-11, MOLM13 and OCI-AML3, which expresses the MLL fusion protein MLL-AF4, MLL-AF9 and carry the NPM1c gene mutation, respectively, were tested. HL-60 was used as a control cell line containing two MLL wildtype alleles in order to exclude compounds that display general cytotoxic effect. MV4-11 cells were cultured in IMDM supplemented with 10% FBS, MOLM13 and OCI-AML3 cells were cultured in RPMI1640 supplemented with 20% FBS, and HL-60 cells were cultured in IMDM supplemented with 20% FBS. Corresponding cells (MV4-11, MOLM13, OCI-AML3 or HL-60 cell line) were seeded in 100 uL medium per well in 96-well plate (white wall with clear bottom, tissue culture treated, Corning, Cat. No. CLS3903; Lot.No. 30419025). Plates were placed in the CO2 incubator overnight. Compounds solution (2 mM starting, 4-fold serial dilution) were prepared and added to the wells containing 100 μL of the culture medium with HPD300 according to the plate map and centrifuge at 1000 rpm for 1 minutes (200-fold dilution totally). MV4-11, MOLM13, OCI-AML3 and HL-60 cells were incubated with the compounds for 4, 12, 5 and 4 days, respectively, under 5% CO2 at 37° C., respectively. 100 μL of CellTiter-Glo reagent (Promega, Cat. No. G7573, Lot. No. 0000416710) was added to the assay plate by Multidrop Combi instrument, contents were mixed for 10 minutes on an orbital shaker to induce cell lysis. After incubation at room temperature for 10 mins, clear bottom with white back seal was pasted and luminescence with Envision was read.

MOLM13 cells = test: Cell proliferation assay (CellTiter-Glo), MOLM13; format: cell-based, human; details: Homo sapiens, MOLM-13, 288 h; MOLM13 (MLL-AF9), 12 days incubation; read-out: Cell antiproliferation assay MOLM13 IC50
Experimental: as §1

MV-4-11 cells = test: Cell proliferation assay (CellTiter-Glo), MV-4-11; format: cell-based, human; details: Homo sapiens, MV4-11, 96 h; MV-4-11 (MLL-AF4), 4 days incubation; read-out: Cell antiproliferation assay MV-4-11 IC50
Outline: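 Antiproliferative activity by CellTiter-Glo luminescence; MV4-11 (MLL-AF4) in IMDM/10% FBS, 4 days; MOLM13 (MLL-AF9) in RPMI1640/20% FBS, 12 days; OCI-AML3 (NPM1c) in RPMI1640/20% FBS, 5 days; HL-60 (MLL wild-type control) in IMDM/20% FBS, 4 days. Compounds 4-fold serial from 2 mM stock, 200-fold final dilution; 37 °C, 5% CO2.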

Menin-MLL1 = target: T1, Menin-MLL1 (Homo sapiens, UniProt O00255); test: Menin-MLL1 inhibition assay (fluorescence polarization, Menin protein + FAM-MLL peptide); format: binding; details: Menin (2-610) isoform 2, FAM-labelled MLL peptide, mP readout; read-out: Biochemical assay Menin-MLL1 IC50
T1 construct: Menin (2-610) isform2; purchased ChemPartner 2020111101
T1 sequence (O00255 2-610): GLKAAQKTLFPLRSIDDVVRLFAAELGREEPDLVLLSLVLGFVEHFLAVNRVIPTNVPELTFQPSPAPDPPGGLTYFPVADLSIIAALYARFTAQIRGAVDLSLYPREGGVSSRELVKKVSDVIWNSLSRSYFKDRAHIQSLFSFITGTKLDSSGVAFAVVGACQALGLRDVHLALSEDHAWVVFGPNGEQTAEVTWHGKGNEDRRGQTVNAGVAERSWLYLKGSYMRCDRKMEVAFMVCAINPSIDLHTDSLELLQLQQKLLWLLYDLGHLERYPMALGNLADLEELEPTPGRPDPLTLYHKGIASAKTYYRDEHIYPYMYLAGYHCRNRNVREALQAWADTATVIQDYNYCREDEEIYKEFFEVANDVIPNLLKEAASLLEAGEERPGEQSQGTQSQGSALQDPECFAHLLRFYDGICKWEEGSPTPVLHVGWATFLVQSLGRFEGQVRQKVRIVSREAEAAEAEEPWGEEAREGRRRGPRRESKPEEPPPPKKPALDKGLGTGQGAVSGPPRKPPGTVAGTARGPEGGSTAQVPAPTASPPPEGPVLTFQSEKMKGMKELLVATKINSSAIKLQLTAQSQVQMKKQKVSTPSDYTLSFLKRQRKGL

HL-60 cells = test: Cell proliferation assay (CellTiter-Glo), HL-60 control line; format: cell-based, human; details: Homo sapiens, 96 h, 4 days incubation; for IC50: HL-60 control line (MLL wildtype), read-out: Cell antiproliferation assay HL-60 IC50; for inhibition at 10 µM: HL-60 control line, read-out: HL-60 (Pct of inhibition at 10 μM)
Experimental: as §1

hERG potassium channel = target: T2, hERG potassium channel (Homo sapiens, UniProt Q12809); test: hERG inhibition study (Qpatch, CHO-hERG cells); format: cell-based; details: highest test concentration 40 μM
T2 construct: expressed in transfected cells; host or cells: CHO-hERG cells
T2 sequence (Q12809 whole entry): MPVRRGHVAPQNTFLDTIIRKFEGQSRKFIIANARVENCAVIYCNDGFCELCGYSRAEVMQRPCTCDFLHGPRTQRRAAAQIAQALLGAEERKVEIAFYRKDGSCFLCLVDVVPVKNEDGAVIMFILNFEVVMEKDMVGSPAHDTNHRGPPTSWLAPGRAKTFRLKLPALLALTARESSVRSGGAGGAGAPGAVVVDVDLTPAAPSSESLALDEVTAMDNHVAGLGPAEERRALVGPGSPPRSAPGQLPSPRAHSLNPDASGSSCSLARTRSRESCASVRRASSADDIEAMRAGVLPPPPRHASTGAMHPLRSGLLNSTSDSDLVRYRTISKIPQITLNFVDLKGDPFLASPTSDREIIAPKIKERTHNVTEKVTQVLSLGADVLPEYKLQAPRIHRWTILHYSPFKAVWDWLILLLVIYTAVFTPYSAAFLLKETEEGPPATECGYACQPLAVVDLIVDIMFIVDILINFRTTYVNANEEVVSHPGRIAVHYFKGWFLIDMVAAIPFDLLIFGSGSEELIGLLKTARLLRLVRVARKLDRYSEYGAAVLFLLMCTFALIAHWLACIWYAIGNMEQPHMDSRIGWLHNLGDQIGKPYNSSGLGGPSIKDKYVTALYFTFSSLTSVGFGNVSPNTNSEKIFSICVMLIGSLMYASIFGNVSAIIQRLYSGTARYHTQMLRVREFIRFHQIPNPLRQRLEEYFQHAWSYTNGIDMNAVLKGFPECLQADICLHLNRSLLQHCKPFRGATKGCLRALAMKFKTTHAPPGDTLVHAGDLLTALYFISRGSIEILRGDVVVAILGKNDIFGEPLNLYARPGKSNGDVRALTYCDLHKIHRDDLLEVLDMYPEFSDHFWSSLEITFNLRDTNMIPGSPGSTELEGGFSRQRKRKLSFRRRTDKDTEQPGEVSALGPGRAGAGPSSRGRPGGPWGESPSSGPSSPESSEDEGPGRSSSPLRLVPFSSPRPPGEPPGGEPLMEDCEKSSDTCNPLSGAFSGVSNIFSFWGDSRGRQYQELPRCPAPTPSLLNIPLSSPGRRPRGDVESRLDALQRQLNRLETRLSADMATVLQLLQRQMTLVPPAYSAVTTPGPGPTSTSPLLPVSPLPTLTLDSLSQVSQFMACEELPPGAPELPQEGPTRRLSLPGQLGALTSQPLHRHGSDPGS
Experimental: The inhibition effects of the test compounds on hERG were carried out in CHO-hERG cells (cell density: 21.5×10˜6/mL). 10 μL compound mother liquor was added to 20 μL DMSO solution, and then continuously diluted to 6 concentrations by 3-fold. The compound solution (4 uL) of six different concentrations were added to the extracellular solution (996 uL) and diluted to the final concentration to be tested (250-fold dilution totally). The highest test concentration was 40.00 μM, followed by […], 13.3, 4.4, 1.48, 0.49 and 0.16 μM. […] The high impedance sealing of single cell and the formation of whole cell model were all completed automatically by Qpatch instrument.

[1] = Liver microsome stability study; format: in vitro ADME; details: human liver microsomes 0.5 mg/mL, 1 μM compound, NADPH, 37° C.; read-out: Human liver microsome T1/2
Experimental: Studies were carried out in liver microsomes (Corning, 0.5 mg/mL). Stock solutions were prepared at 10 mM in DMSO for the test compounds. Aliquots of the stock solutions were diluted to 0.5 mM with acetonitrile, and then further diluted upon the addition of liver microsomes/buffer to 1.5 μM. An aliquot of 30 μL of 1.5 μM solutions was mixed with 15 μL of 6 mM NADPH and the final concentration of NADPH was 2 mM, which had been pre-warmed to 37° C. Test compounds and Ketanserin final concentrations were 1 μM. The plates were kept in a 37° C. water bath for the duration of the experiment. At each time point (0, 5, 15, 30, 45 minutes), 135 μL of acetonitrile was added into corresponding wells. After the final time point was quenched by acetonitrile, the assay plates were shaken at the vibrator (IKA, MTS 2/4) for 10 min (600 rpm/min) and then centrifuged at 5,594 g for 15 min (Thermo Multifuge×3R). Aliquots of the supernatant were taken, diluted 1:1 into distilled water, and analyzed by LC-MS/MS. The peak area response ratio to internal standard (PARR) of the compounds at 5, 15, 30, 45 minutes was compared to the PARR at time 0 to determine the percent of test compound remaining at each time point. Half-lives were calculated using Excel software, fitting to a single-phase exponential decay equation.

SMILES	IC50 (OCI-AML3 cells) [nM]	IC50 (MOLM13 cells) [nM]	IC50 (MV-4-11 cells) [nM]	IC50 (Menin-MLL1) [nM]	IC50 (HL-60 cells) [nM]	inhibition at 10 µM (HL-60 cells) [%]	IC50 (hERG potassium channel) [nM]	half-life at 1 μM [1] [h]
CCN(C(=O)c1cc(F)ccc1Oc1nncnc1N1CC2(CCN(C(=O)[C@H]3NC[C@H]4[C@@H]3C4(C)C)CC2)C1)C(C)C (stereo in doubt) [Example 68]	68.3	46.1	13.8	4.1	> 10000	14.1	> 40000	
CCN(C(=O)c1cc(F)ccc1Oc1cncnc1N1CC2(CCN(C(=O)[C@]3(C)CCCN3)CC2)C1)C(C)C [Example 22]			134	4.9				1.53
CCN(C(=O)c1cc(F)ccc1Oc1cncnc1N1CC2(CN(C(=O)[C@@H]3C[C@@H](F)CN3)C2)C1)C(C)C [Example 38]			69	3.3				1
CCN(C(=O)c1cc(F)ccc1Oc1nncnc1N1CC2(CCN(C(=O)[C@@H]3C[C@@H](F)CN3)CC2)C1)C(C)C [Example 39, N-ethyl-5-fluoro-2-[(5-{7-[(2S,4R)-4-fluoropyrrolidine-2-carbonyl]-2,7-diazaspiro [3.5]nonan-2-yl}-1,2,4-triazin-6-yl)oxy]-N-(propan-2-yl) benzamide]			43	4.2	> 10000	-24.9		1.57
O=C([C@@H]1C[C@@H](F)CN1)N1CCC2(CC1)CN(c1ncnnc1Oc1ccc(F)cc1-c1cncnc1C1CC1)C2 [Example 62]			39.5	3.4	> 10000	-9.1		1.43
CCN(C(=O)c1cc(F)ccc1Oc1nncnc1N1CC2(CCN(C(=O)[C@H]3NCC[C@H]3C)CC2)C1)C(C)C [Example 63]			43.4	3.5				2.08
CCN(C(=O)c1cc(F)ccc1Oc1nncnc1N1CC2(CCN(C(=O)[C@H]3NCCC3(C)C)CC2)C1)C(C)C [Example 65]		57	15.1	3.1	> 10000	-3.7		1.12
C[C@@H]1CCN[C@@H]1C(=O)N1CCC2(CC1)CN(c1ncnnc1Oc1ccc(F)cc1-c1cncnc1C1CC1)C2 [Example 69]			56.4	4.4				2.57
C[C@H]1CN[C@H](C(=O)N2CCC3(CC2)CN(c2ncnnc2Oc2ccc(F)cc2-c2cncnc2C2CC2)C3)C1 [Example 72]			56.3	5.5				2.63
C[C@H]1CCN[C@@H]1C(=O)N1CCC2(CC1)CN(c1ncnnc1Oc1ccc(F)cc1-c1ccc(C#N)cc1C1CC1)C2 [Example 79]	25.9	15.6	5.9	9.9	> 10000	33.8		
CC1(C)[C@@H]2[C@@H](C(=O)N3CCC4(CC3)CN(c3ncnnc3Oc3ccc(F)cc3-c3cncnc3C3CC3)C4)NC[C@@H]21 [Example 81]	25.5	16.6	7.7	3.9	> 10000	21.4		
CCN(C(=O)c1cc(F)ccc1Oc1nncnc1N1CC2(CCN(C(=O)[C@H]3NCC[C@@H]3OC)CC2)C1)C(C)C [Example 84]	67.1	60.9	20	5.1	> 10000	15.1		1.13
CC[C@@H]1[C@@H](C(=O)N2CCC3(CC2)CN(c2ncnnc2Oc2ccc(F)cc2C(=O)N(CC)C(C)C)C3)NC[C@@H]1F [Example 86]	282	199	76	3.6	> 10000	10.8		
CCN(C(=O)c1cc(F)ccc1Oc1nncnc1N1CC2(CCN(C(=O)[C@@H]3C[C@H](C)CN3)CC2)C1)C(C)C [Example 87]			41.6	4.9				1.1
CCN(C(=O)c1cc(F)ccc1Oc1nncnc1N1CC2(CCN(C(=O)[C@H]3NCC[C@@H]3CF)CC2)C1)C(C)C [Example 88]	102	68.6	24.2	3.2	> 10000	11.4		
